# Measured values reported in a melting point compilation (Tetko et al.).
row,melting point [°C],Structure (SMILES)
1,32,OCc1ccc(Br)cc1F
2,260,Cc1ccc(C)c(N/N=C(\C#N)c2nc3ccccc3n2C)c1
3,118,CCOc1ccc(-c2nnc3n2NC(c2ccccc2)S3)cc1 (stereo not given)
4,54 to 55,O=C(Cl)c1cc2ccccc2o1
5,99,Clc1nccc2sccc12
6,114,COc1ccc(Br)cc1S(=O)(=O)Cl
7,175,CCc1nc2ccccc2[nH]1
8,93,COC(=O)C#Cc1cccc(C#CC(=O)OC)c1
9,70,CC(O)c1ccc(N)cc1 (stereo not given)
10,35 to 36,CCOC(=O)c1cc(Cl)cc(Cl)c1
11,101,CCC(=O)c1cccc([N+](=O)[O-])c1
12,150,ON=C(Cc1ccccc1)c1cccc2ccccc12
13,68 to 70,O=Cc1cccc(N2CCOCC2)c1
14,188 to 189,Cc1cc(C)c(CC(=O)c2oc3ccccc3c2N)c(C)c1
15,69 to 71,Cc1cc(N)c(Cl)cc1F
16,148 to 152,COc1ccc(C(N)=S)cc1
17,74,NNc1ccc(F)c(Cl)c1
18,152 to 156,N#Cc1cc(Br)cc(Br)c1N
19,128,Nc1cc(Cl)ccc1[N+](=O)[O-]
20,52 to 56,N#CC1(c2ccc(Cl)cc2)CC1
21,169,CCCOC(=O)C1=C(C)NC(=S)NC1c1ccccc1 (stereo not given)
22,57 to 63,C=CC(O)COS(=O)(=O)c1ccc(C)cc1 (stereo not given)
23,-60,CC(C)(C)c1ccccc1N
24,190,Oc1ccc(I)cn1
25,112,Cc1nn(C)c(OCC(=O)c2ccccc2)c1C(=O)c1ccc(Cl)cc1Cl

row,melting point [°C],Structure (SMILES)
1,155 to 158,NS(=O)(=O)c1cccc(Br)c1
2,164,CC(C)(C)NCC(O)COc1ccccc1C#N (stereo not given)
3,24 to 25,Cc1onc(-c2ccccc2)c1C(=O)Cl
4,81 to 85,Nn1nnc2ccccc21
5,131 to 133,Cc1nc(-c2ccc(C(F)(F)F)cc2)sc1C=O
6,116,CC(O)(C(=O)O)c1ccccc1 (stereo not given)
7,150,CCOC(=O)c1nn(-c2ccc(C)cc2)c(=N)c(C#N)c1C
8,103,OCCc1ccc2ccccc2n1
9,28,Cc1nc(-c2ccccc2)c(C)s1
10,76.2,COC(=O)C1(S(=O)(=O)c2ccc(Cl)cc2)CCC1
11,110 to 112,Nc1noc2ccccc12
12,81,Cc1cccc(Cl)c1C#N
13,206,Clc1cc2oc3c(Cl)c(Cl)ccc3c2c(Cl)c1Cl
14,134 to 136,Oc1c(CN2CCCCC2)ccc2ccccc12
15,-13.5,Cc1ccccc1C#N
16,87,Cc1ccnc(C#N)c1
17,210,Cc1cc(=O)oc2cc(OP(=O)(O)O)ccc12
18,204 to 207,Cn1c2ccccc2c(=O)c2ccccc21
19,42 to 44,COC(=O)Cc1nc(-c2ccccc2)sc1C
20,112,O=C(CS)Nc1ccc2ccccc2c1
21,189,CCOC(=O)C1=C(C)OC(N)=C(c2nc3ccccc3s2)C1c1ccc(Cl)cc1 (stereo not given)
22,91 to 92,OCc1ccc2sccc2c1
23,82 to 83,Cc1ccc2cccc-2cc1
24,63.7 to 65.5,N#Cc1cccc(C(=O)Cc2cccc(Oc3ccccc3)c2)c1

# The next lines start with the compound.
row,Structure (SMILES),melting point [°C]
1,CCC(O)CO (stereo not given),-50
2,CCCCCCCCCC1CCCC1,-29
3,CC(C)(CO)[N+](=O)[O-],89.5
4,CC1(C)CCCCC1O (stereo not given),8
5,CCC(CC)(CO)CO,61.5
6,COc1ccc(C(=O)C2=NN(c3ccccc3)C3C(=O)N(c4cc(Cl)ccc4Cl)C(=O)C23)cc1 (stereo not given),240
7,CCCCC(=O)OC1(C(=O)CO)C(C)CC2C3CCC4=CC(=O)C=CC4(C)C3(F)C(O)CC21C (stereo not given),184
8,CCCCCCCC/C=C\CCCCCCCC#N,-1
9,CCCCCCCCCCCCCCCCCCCCCCC(=O)O,79 to 80
10,C1CC2OC2CC1C1CO1 (stereo not given),-109
11,C=C(C)CCCCCCCC,-51
12,O=C1N(c2ccccc2)C(=O)[C@@]2(Cl)C(c3ccccc3)(c3ccccc3)C[C@@]12Cl,160
13,C(=N\c1cc2c(cc1CCc1ccccc1)CC(c1ccccc1)N2)/c1ccccc1 (stereo not given),118
14,Cc1[nH]c(C)c(C)c1C,111
15,CCC(=O)c1ccc2c(c1)N(CCCN(C)C)c1ccccc1S2,69.5
16,COC(CN1CCN(CC(O)C(OC)c2ccccc2)CC1)c1ccccc1 (stereo not given),83
17,O=[N+]([O-])c1ccc(NN=C(Cc2ccccc2)C(O)Cc2ccccc2)cc1 (stereo not given),122
18,O=C=Nc1ccc2c(c1)OCCOCCOCCOCCO2,35 to 39
19,Nc1c(F)c(F)c(C(=O)O)c(F)c1F,183
20,ClCc1cccc2ccccc12,32
21,CC1C(=CC(=O)OCCN(C)C)CCC2C1C(=O)CC1C(C)(C)C(O)CCC21C (stereo not given),142

row,Structure (SMILES),melting point [°C]
1,CC(N)C(O)c1ccccc1 (stereo not given),192
2,O=c1cc(-c2ccc(O)c(O)c2)oc2ccccc12,250
3,CCCCCOc1ccc(C(=O)O)cc1,123 to 127
4,COC(=O)C1=C(C(=O)OC)Cc2cc3c(cc2C1)CC(C(=O)OC)=C(C(=O)OC)C3,209
5,Cc1cccnc1NC(=O)C(F)(F)C(F)(F)C(F)(F)C(F)(F)C(F)(F)C(F)(F)C(F)(F)C(F)(F)F,161
6,CCC(C(=O)Nc1ccc(C)cc1)c1ccc(C)cc1 (stereo not given),118
7,O=C1/C(=C/c2ccc([N+](=O)[O-])cc2)SC(=S)N1CN1CCOCC1,169
8,COC(=O)COc1ccc(Cl)cc1Cl,119
9,c1ccc2c(c1)-c1nc3ccccc3nc1-2,203
10,c1ccc2c(c1)OCCOCCOCCOc1ccccc1OCCOCCOCCO2,102 to 106
11,C=C1C(=O)C23C(OC(C)=O)CC4C5(C)CCCC4(C(O)OC5)C2C(OC(C)=O)CC1C3OC(C)=O (stereo not given),226
12,CN(C)C(=O)OC1=CC(=O)CC(C)(C)C1,45.5
13,CCCCCCCCCCCC1CCCC1,-10
14,C=CC(OC(C)=O)OC(C)=O,-37.6
15,O=C(Nc1ccccc1)c1ccccc1I,137
16,FC(F)=C(Cl)C(F)(F)F,-130
17,O=C(c1ccc(Br)cc1)c1noc(-c2ccc(Cl)cc2)c1S(=O)(=O)c1ccccc1,145
18,COC(=O)c1cc(OC)c(C)c(OC)c1,104
19,COc1cc(Br)c(C=CC(=O)O)cc1OC,253 to 259
20,O=C(NC1C2C=CC(C2)C1C(=O)O)OCc1ccccc1 (stereo not given),119 to 123
21,CC(C)(C)OC(=O)N1CCN(c2ccc(C=O)cc2)CC1,118 to 119

row,Structure (SMILES),melting point [°C]
1,OC(CCCc1ccccc1)c1ccccc1 (stereo not given),47
2,Cc1ccc(C)c2ccccc12,7.6
3,O=C1c2ccccc2C(=O)c2c([N+](=O)[O-])ccc(O)c21,273 to 275
4,C=CF,-160
5,Cc1c(F)c(F)c(CBr)c(F)c1F,42
6,CCCCC(CC)CCl (stereo not given),-70
7,CCOC(=O)CNc1cc(Cl)c([N+](=O)[O-])cc1[N+](=O)[O-],146
8,N=c1sc(C(=O)c2cccs2)nn1-c1c(Cl)cc(Cl)cc1Cl,209
9,Nc1c(Br)cc(Br)c2c1C(=O)c1ccccc1C2=O,227
10,NC(CC(=O)O)C(F)(F)F (stereo not given),185 to 190
11,CCOP(=S)(OCC)SCCSCC,-25
12,NS(=O)(=O)c1cc2c(s1)C(O)CCS2=O (stereo not given),190
13,CC12CCC(C3(CCC(=O)O3)C1=O)C2(C)C (stereo not given),207
14,CCNc1cc2oc(=O)cc(C(F)(F)F)c2cc1C,184
15,CCCCOc1ccc(CC(=O)NO)cc1,153
16,CN1CCNC(=O)CCSCCSCCC1=O,115 to 116
17,Cc1ncc(CO)c(CO)c1O,160
18,CCCOCCC,-122
19,ClC(Cl)=CBr,-88.5
20,O=C(C=Cc1ccc(F)cc1)c1ccc(F)cc1,113 to 118
21,Nc1nnc(-c2ccccc2)c(-c2ccccc2)n1,177 to 179

row,Structure (SMILES),melting point [°C]
1,Fc1nc(F)c(Cl)c(F)c1Cl,25
2,CCC(C1CCc2cc(O)ccc2C1)C(C)(C)C(=O)O (stereo not given),163
3,CCCCCCCCCCC(O)CC (stereo not given),32
4,O=C(O)c1cccnc1N1CCOCC1,129 to 133
5,CC(N)(Cc1ccc(O)cc1)C(=O)O (stereo not given),312
6,CN1CCN(c2cccc([N+](=O)[O-])c2)CC1,60 to 62
7,FC(F)(F)c1nn(CN2CCN(Cn3nc(C(F)(F)F)n(N=Cc4cccs4)c3=S)CC2)c(=S)n1N=Cc1cccs1,187
8,Cc1ccc(N2CCNCC2)cc1C,63
9,c1ccc(-c2nc(-c3ccccc3)nc(-c3ccccc3)n2)cc1,235
10,C=CC(C)(O)CCC=C(C)CCC=C(C)C (stereo not given),25
11,Cn1c(=O)c(C2=NNC(=O)C2=NNc2ccncc2)c(O)c2ccccc21,294
12,c1csc(P(c2cccs2)c2cccs2)c1,29 to 30
13,CCCCCCCCCCCCOS(=O)(=O)c1ccc(C)cc1,28.5 to 31.5
14,c1ccc(P(CCCCCCP(c2ccccc2)c2ccccc2)c2ccccc2)cc1,127
15,O=C(NC(=S)Nc1ccc(Cl)cc1)c1ccc(-c2ccccc2)cc1,165
16,N#CC1(C#N)C2O[C@H](c3ccccc3)[C@@H](C3=C2CCCC3)C1(C#N)C#N,168
17,Nc1cccc(-c2ccccc2)c1,33
18,CC(=O)NCc1c(I)c(NC(C)=O)c(I)c(C(=O)O)c1I,255
